Data taken from paper PMC8143347, “Metabolism and Interspecies Variation of IMMH-010, a Programmed Cell Death Ligand 1 Inhibitor Prodrug” (Pharmaceutics, 2021).

Tests used:
[1] = Metabolism in rat liver S9 fractions; type: in vitro ADME
Protocol: (§1) IMMH-010 metabolism was compared in human, monkey, dog, and rat liver S9 homogenates. IMMH-010 (10 μM) was incubated with liver S9 homogenate protein (0.5 mg protein/mL) and a reduced nicotinamide adenine dinucleotide phosphate (NADPH) regenerating system in a final volume of 0.2 mL Tris-HCl buffer (50 mM, pH 7.4) containing 5 mM MgCl2. The reactions were performed in triplicate. After 2 min of preincubation at 37 °C, reactions were initiated by the addition of IMMH-010 (10 μM). The samples were collected 0, 5, 10, and 20 min after incubation, 2 volumes of acetonitrile were added to terminate the reaction. After vortexing and centrifugation, IMMH-010, YPD-29B, M3, and M4 in the supernatant were analyzed by LC-MS/MS.
(§2) All statistics were calculated using GraphPad Prism 8.0 software (San Diego, CA, USA) designed for one-way ANOVA. Pharmacokinetic parameters were calculated with a non-compartmental analysis using WinNonlin Version 6.3 (Pharsight, Mountain View, CA, USA). ADMET predictor V10.0 (Simulations Plus, Inc., Lancaster, CA, USA) and Microsoft Excel (Microsoft, Redmond, WA, USA) were used to process the data (i.e., half-life (t1/2) and hepatic clearance (CLhep) determination). Data were expressed as means ± standard deviations (SD). Results were considered statistically significant if the p-value <0.05, <0.01 and <0.001.

[2] = Plasma and tumor PK in MC38 colon cancer xenograft mice; type: in vivo, mouse; settings: after last oral dose of IMMH-010 maleate 5 mg/kg
Protocol: After the final dose, tumor and blood samples treated with IMMH-010 maleate (5 mg/kg) were collected over 72 h. Blood was exposed in an EP tube containing 500 mM NaF and 0.5% heparin sodium. Plasma samples were obtained by centrifugation, and tumor tissues were homogenized with 3 volumes (w/v) of saline on ice. The concentration of IMMH-010 and YPD-29B in plasma and tumor samples was quantitated by an LC-MS/MS method.
LC-MS/MS was performed using a triple quadrupole mass spectrometer (API 4000, AB Sciex, Framingham, MA, USA) with an ultra-performance liquid chromatography system (LC-30A, Shimadzu, Kyoto, Japan). Analyst 1.6.2 software (AB Sciex) was used for data acquisition and analysis. Mobile phase A was 1 mM ammonium acetate and mobile phase B was methanol. The mobile phase was delivered with the following gradient elution profile: 0–2.8 min, 70% B; 2.9 min, 85% B; 3 min, 90% B; 3.1–6.8 min, 100% B; 6.9–12 min, 70% B. The flow rate was 0.3 mL/min, and the column oven was maintained at 35 °C. The specific transitions monitored were 641.3 → 494.2 for IMMH-010, 597 → 155 for YPD-29B, 512 → 247 for M3, and 524 → 246 for M4.
as §2

[3] = IMMH-010 stability in rat plasma; type: in vitro ADME; settings: 10 μM, 4 °C, 60 min
Protocol: (§3) IMMH-010 hydrolysis was investigated in human, monkey, rat, and mouse plasma. IMMH-010 (1 μM) was incubated in human, monkey, or […] plasma (0.2 mL) at 37 °C for 120 min. IMMH-010 (10 μM) was incubated in rat or mouse plasma (0.2 mL) at 4 °C for 60 min. The experiments were performed in triplicate. The reactions were initiated by the addition of IMMH-010 (10 μM). After incubation, the reactions were stopped by adding 2 volumes of ice-cold acetonitrile. After vortexing and centrifuging, the concentrations of IMMH-010 and YPD-29B in the supernatant were determined by liquid chromatography with tandem mass spectrometry (LC-MS/MS). The compound olmesartan (10 μM), a substrate of paraoxonase 1, was set as the positive control.

[4] = IMMH-010 stability in mouse plasma; type: in vitro ADME; settings: 10 μM, 4 °C, 60 min
Protocol: as §3

[5] = Metabolism in monkey liver S9 fractions; type: in vitro ADME
Protocol: as §1, §2

recombinant human AADAC = biological target: T1, recombinant human AADAC (Homo sapiens, UniProt P22760); test: IMMH-010 hydrolysis by recombinant human AADAC; type: in vitro ADME; settings: 10 μM, AADAC 0.1 mg/mL, 15 min, 37 °C
T1 construct: purchased CUSABIO Biotech Co., Ltd. (Wuhan, China)
T1 sequence (P22760 1-399): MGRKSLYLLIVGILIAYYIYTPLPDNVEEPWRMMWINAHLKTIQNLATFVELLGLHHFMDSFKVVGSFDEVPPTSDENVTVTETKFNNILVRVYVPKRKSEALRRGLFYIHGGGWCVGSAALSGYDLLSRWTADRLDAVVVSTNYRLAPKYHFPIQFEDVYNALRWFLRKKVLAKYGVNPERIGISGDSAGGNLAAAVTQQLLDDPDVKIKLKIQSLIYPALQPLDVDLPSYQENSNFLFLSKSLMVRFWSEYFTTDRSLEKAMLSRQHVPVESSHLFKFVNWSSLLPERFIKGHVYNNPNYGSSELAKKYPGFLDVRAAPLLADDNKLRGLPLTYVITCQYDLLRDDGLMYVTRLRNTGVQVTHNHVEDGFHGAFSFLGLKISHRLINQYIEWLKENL
Protocol: To verify the role of CES1, CES2, and AADAC in human metabolism of […]-010 (10 μM) was incubated individually with recombinant human CES1, CES2, and AADAC (0.1 mg protein/mL) at 37 °C for 15 min. Lidocaine (500 μM), CPT-11 (2 μM), and phenacetin (1 mM), which are substrates of CES1, CES2, and AADAC, were used as positive controls.

What does the source list for `CC(C)OC(=O)[C@H](CO)NCc1cc(Cl)c(OCc2cccc(-c3ccccc3)c2Br)cc1OCc1cccnc1` [IMMH-010]?
estimated CLhep ([1]; from rat liver S9): 58.4 mL/min/kg; half-life at 10 μM ([1]; pH 7.4, rat liver S9 0.5 mg protein/mL, 10 μM, NADPH): 7.1 min; concentration of IMMH-010 in plasma and tumor tissues [2]: < 1 ng/mL; plasma stability [3]: decreased time-dependently; plasma stability [4]: decreased time-dependently; estimated CLhep ([5]; from monkey liver S9): 37.2 mL/min/kg; half-life at 10 μM ([5]; pH 7.4, monkey liver S9 0.5 mg protein/mL, 10 μM, NADPH): 8.28 min; remaining amount of IMMH-010 (recombinant human AADAC): 98.7%
